Data as given in patent publication US20250066335A1, “POLYSUBSTITUTED 4-HYDROXYPYRIDINE AND 4-HYDROXYQUINOLINE DERIVATIVES AS GPR84 ANTAGONISTS” (UNIVERSITY OF COPENHAGEN, priority 2021, published 2025).

Molecular target: T1, GPR84 (Homo sapiens, UniProt Q9NQS5)
T1 construct: expressed in transfected cells; host or cells: HTLA cells (HEK293 line stably expressing a tTA-dependent luciferase reporter and a β-arrestin2-TEV fusion gene), transiently transfected with PEI
Assay: PRESTO-Tango β-arrestin2 recruitment assay, GPR84 antagonistic activity
Assay type: cell-based
Conditions: antagonist activity in the Presto-TANGO assay; inhibition of the response from the agonist ZQ-16 (100 nM); HTLA cells
Method: PRESTO-Tango β-arrestin recruitment assay (W.K. Kroeze et al., 2015). HTLA cells (a HEK293 cell line stably expressing a tTA-dependent luciferase reporter and a β-arrestin2-TEV fusion gene) were maintained in Dulbecco's Modified Eagle's Medium (DMEM) supplemented with 10% Fetal Bovine Serum (dFBS), 100 U/mL penicillin and 100 μg/mL streptomycin, 2 μg/mL puromycin and 100 μg/mL hygromycin B in a humidified atmosphere at 37° C. in 5% CO2. For transfection, cells were plated at 9×10^6 to 10×10^6 cells per 15-cm cell-culture dish (day 1). The following day (day 2), cells were transfected by adding 5 μg DNA and 15 μg polyethylenimine (PEI) diluted in 1 mL Opti-MEM (Reduced Serum Medium supplied by ThermoFisher). On day 3, transfected cells were transferred at 25000 cells per well in 40 μl of medium into poly-l-lysine-coated and rinsed 384-well white, clear-bottomed cell-culture plates (Greiner Bio-One). On day 4, dilutions of the ligands to be tested were prepared in 1% dFBS DMEM and 10 μL were added to each well. On day 5, 20 μl per well of Bright-Glo solution (Promega) diluted 10-fold in assay buffer (Hanks' Balanced Salt Solution [HBSS], 20 mM HEPES, 1 mM CaCl2, 1 mM MgCl2, pH adjusted to 7.4 by 5 M NaOH) was added to each well. After incubation for 20 min at room temperature, luminescence was counted in an Enspire luminescence counter at 384 nm. Results in the form of relative luminescence units (RLU) were exported into Excel spreadsheets, and GraphPad Prism was used for analysis of data. To measure constitutive activity, no ligand was added on day 4.
The GPR84 antagonistic activity of the compounds was determined using the PRESTO-Tango β-arrestin2 recruitment assay (Assay I, see assays above), from which the concentration of each compound required for 50% inhibition (IC50) of the response from the agonist ZQ-16 (100 nM) was determined. The antagonistic activity for each compound is given in Table 1 as the pIC50, which is the negative log of the IC50 value when converted to molar.

T1 sequence (Q9NQS5 whole entry, the tested form may be a part): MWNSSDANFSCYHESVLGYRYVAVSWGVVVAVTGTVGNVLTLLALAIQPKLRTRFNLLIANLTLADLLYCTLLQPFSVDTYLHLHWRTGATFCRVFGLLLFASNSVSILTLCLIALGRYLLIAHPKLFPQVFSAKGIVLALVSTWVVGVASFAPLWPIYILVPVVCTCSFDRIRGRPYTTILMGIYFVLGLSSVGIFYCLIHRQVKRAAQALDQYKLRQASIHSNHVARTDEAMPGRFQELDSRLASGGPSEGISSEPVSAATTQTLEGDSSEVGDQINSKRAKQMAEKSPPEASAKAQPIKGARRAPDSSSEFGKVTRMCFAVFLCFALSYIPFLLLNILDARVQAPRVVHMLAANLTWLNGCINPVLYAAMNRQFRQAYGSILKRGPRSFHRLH

SMILES	IC50
CCCc1ccc(CCc2nc(OCC3CCCCO3)cc(O)c2Br)cc1 (stereo not shown) [Example 1, 3-bromo-2-(4-propylphenethyl)-6-((tetrahydro-2H-pyran-2-yl)methoxy)pyridin-4-ol]	3.02 nM
CCOc1ccc(CCc2nc(OCC3COCCO3)cc(O)c2CC)cc1 (stereo not shown) [Example 26, 6-((1,4-Dioxan-2-yl)methoxy)-2-(4-ethoxyphenethyl)-3-ethylpyridin-4-ol]	0.389 nM
CCc1c(O)cc(OC[C@@H]2COCCO2)nc1CCCCc1ccccc1 [Example 56, (S)-6-((1,4-dioxan-2-yl)methoxy)-3-ethyl-2-(4-phenylbutyl)pyridin-4-ol]	23.4 nM
CCc1c(O)cc(OCC2COCCO2)nc1CCc1ccc(OCc2nc(C(=O)OC)co2)cc1 (stereo not shown) [Example 41, Methyl 2-((4-(2-(6-((1,4-dioxan-2-yl)methoxy)-3-ethyl-4-hydroxypyridin-2-yl)ethyl)phenoxy)methyl)oxazole-4-carboxylate]	0.759 nM
CCc1c(O)cc(OC[C@@H]2COCCO2)nc1CCc1ccc(OC)cc1C#N [Example 55, (S)-2-(2-(6-((1,4-dioxan-2-yl)methoxy)-3-ethyl-4-hydroxypyridin-2-yl)ethyl)-5-methoxybenzonitrile]	0.55 nM
CCc1c(O)cc(OCC2COCCO2)nc1CCc1ccc(O)cc1 (stereo not shown) [Example 43, 6-((1,4-dioxan-2-yl)methoxy)-3-ethyl-2-(4-hydroxyphenethyl)pyridin-4-ol]	1.07 nM
CCCc1ccc(CCc2nc(OCC3CCCCO3)cc(O)c2-c2ccccc2)cc1 (stereo not shown) [Example 3, 3-Phenyl-2-(4-propylphenethyl)-6-((tetrahydro-2H-pyran-2-yl)methoxy)pyridin-4-ol]	85.1 nM
CCCc1ccc(CCc2nc(OCC3CCCCO3)cc(O)c2-c2ccc(OCC(=O)OC)cc2)cc1 (stereo not shown) [Example 18, Methyl 2-(4-(4-hydroxy-2-(4-propylphenethyl)-6-((tetrahydro-2H-pyran-2-yl)methoxy)pyridin-3-yl)phenoxy)acetate]	148 nM
CCCc1ccc(CCc2nc(OCC3CCCCO3)cc(O)c2-c2ccc(C(=O)O)cc2)cc1 (stereo not shown) [Example 21, 4-(4-Hydroxy-2-(4-propylphenethyl)-6-((tetrahydro-2H-pyran-2-yl)methoxy)pyridin-3-yl)benzoic acid]	141 nM
CCCc1ccc(CCc2nc(OCC3CCCCO3)cc(O)c2-c2ccc(O)cc2)cc1 (stereo not shown) [Example 17, 3-(4-Hydroxyphenyl)-2-(4-propylphenethyl)-6-((tetrahydro-2H-pyran-2-yl)methoxy)pyridin-4-ol]	93.3 nM
CCOc1ccc(CCc2nc(OCC3COCCO3)cc(O)c2CC)cn1 (stereo not shown) [Example 49, 6-((1,4-Dioxan-2-yl)methoxy)-2-(2-(6-ethoxypyridin-3-yl)ethyl)-3-ethylpyridin-4-ol]	0.501 nM
[2H]C([2H])([2H])C([2H])([2H])Oc1ccc(C([2H])([2H])C([2H])([2H])c2nc(OCC3COCCO3)cc(O)c2CC)cc1 (stereo not shown) [Example 44, 6-((1,4-Dioxan-2-yl)methoxy)-2-(2-(4-(ethoxy-d5)phenyl)ethyl-1,1,2,2-d4)-3-ethylpyridin-4-ol]	0.209 nM
CC(=O)NCCOc1ccc(CCc2nc(OCC3COCCO3)cc(O)c2C)cc1 (stereo not shown) [Example 31, N-(2-(4-(2-(6-((1,4-dioxan-2-yl)methoxy)-4-hydroxy-3-methylpyridin-2-yl)ethyl)phenoxy)ethyl)acetamide]	17.8 nM
CCc1c(O)cc(OCC2COCCO2)nc1CCc1ccc(OCCOCCNC(=O)OC(C)(C)C)cc1 (stereo not shown) [Example 34, tert-Butyl (2-(2-(4-(2-(6-((1,4-dioxan-2-yl)methoxy)-3-ethyl-4-hydroxypyridin-2-yl)ethyl)phenoxy)ethoxy)ethyl)carbamate]	0.331 nM
CCCc1ccc(CCc2nc(OCC3CCCCO3)cc(O)c2CCc2ccccc2)cc1 (stereo not shown) [Example 11, 3-Phenethyl-2-(4-propylphenethyl)-6-((tetrahydro-2H-pyran-2-yl)methoxy)pyridin-4-ol]	178 nM
CCCc1ccc(CCc2nc(OCC3CCCCO3)cc(O)c2-c2ccc(C)cc2)cc1 (stereo not shown) [Example 10, 2-(4-Propylphenethyl)-6-((tetrahydro-2H-pyran-2-yl)methoxy)-3-(p-tolyl)pyridin-4-ol]	66.1 nM
CCc1c(O)cc(OC[C@@H]2COCCO2)nc1CCc1ccc(OC)cc1OC [Example 53, (S)-6-((1,4-dioxan-2-yl)methoxy)-2-(2,4-dimethoxyphenethyl)-3-ethylpyridin-4-ol]	0.355 nM
CCCc1ccc(CCc2nc(OCC3CCCCO3)cc(O)c2CCCO)cc1 (stereo not shown) [Example 15, 3-(3-Hydroxypropyl)-2-(4-propylphenethyl)-6-((tetrahydro-2H-pyran-2-yl)methoxy)pyridin-4-ol]	1.7 nM
CCc1c(O)cc(OCC2COCCO2)nc1CCc1ccc(OCC(N)=O)cc1 (stereo not shown) [Example 37, 2-(4-(2-(6-((1,4-Dioxan-2-yl)methoxy)-3-ethyl-4-hydroxypyridin-2-yl)ethyl)phenoxy)acetamide]	2.88 nM
CCc1c(O)cc(OCC2COCCO2)nc1CCc1ccc(OCCCCC(=O)O)cc1 (stereo not shown) [Example 47, 5-(4-(2-(6-((1,4-Dioxan-2-yl)methoxy)-3-ethyl-4-hydroxypyridin-2-yl)ethyl)phenoxy)pentanoic acid]	4.07 nM
Cc1c(O)cc(OCC2COCCO2)nc1CCc1ccc(OCC(=O)O)cc1 (stereo not shown) [Example 30, 2-(4-(2-(6-((1,4-Dioxan-2-yl)methoxy)-4-hydroxy-3-methylpyridin-2-yl)ethyl)phenoxy)acetic acid]	1290 nM
Cc1c(O)cc(OCC2COCCO2)nc1CCc1ccc(OCCNC(=O)OC(C)(C)C)cc1 (stereo not shown) [Example 27, Tert-butyl (2-(4-(2-(6-((1,4-dioxan-2-yl)methoxy)-4-hydroxy-3-methylpyridin-2-yl)ethyl)phenoxy)ethyl)carbamate]	0.282 nM
CCc1c(O)cc(OCC2COCCO2)nc1CCc1ccc(OCCCS(C)(=O)=O)cc1 (stereo not shown) [Example 39, 6-((1,4-Dioxan-2-yl)methoxy)-3-ethyl-2-(4-(3-(methylsulfonyl)propoxy)phenethyl)pyridin-4-ol]	0.871 nM
CCOc1ccc(C2CC2c2nc(OCC3COCCO3)cc(O)c2CC)cc1 (stereo not shown) [Example 51, 6-((1,4-Dioxan-2-yl)methoxy)-2-(2-(4-ethoxyphenyl)cyclopropyl)-3-ethylpyridin-4-ol]	87.1 nM
CCc1c(O)cc(OCC2COCCO2)nc1CCc1ccc(OCc2nc(C(=O)O)co2)cc1 (stereo not shown) [Example 48, 2-((4-(2-(6-((1,4-Dioxan-2-yl)methoxy)-3-ethyl-4-hydroxypyridin-2-yl)ethyl)phenoxy)methyl)oxazole-4-carboxylic acid]	5.37 nM
CCCc1ccc(CCc2nc(OCC3COCCO3)cc(O)c2CC)cc1 (stereo not shown) [Example 25, 6-((1,4-Dioxan-2-yl)methoxy)-3-ethyl-2-(4-propylphenethyl)pyridin-4-ol]	0.776 nM
CCCCc1ccc(-c2nc(OC[C@@H]3COCCO3)cc(O)c2CC)cc1 [Example 57, (S)-6-((1,4-dioxan-2-yl)methoxy)-2-(4-butylphenyl)-3-ethylpyridin-4-ol]	120 nM
CCOc1ccc(CCc2nc(OCC3COCCO3)cc(O)c2C)cc1 (stereo not shown) [Example 23, 6-((1,4-Dioxan-2-yl)methoxy)-2-(4-ethoxyphenethyl)-3-methylpyridin-4-ol]	3.31 nM
